From article PMC3062711 (Biochimica et biophysica acta, 2010)

Target: human TRPA1 channel (hTRPA1) (Homo sapiens, UniProt O75762)
Assay: inside-out patch clamp recording, hTRPA1 expressed in HEK293T cells
Assay type: cell-based

human TRPA1 channel (hTRPA1), sequence (O75762 whole entry): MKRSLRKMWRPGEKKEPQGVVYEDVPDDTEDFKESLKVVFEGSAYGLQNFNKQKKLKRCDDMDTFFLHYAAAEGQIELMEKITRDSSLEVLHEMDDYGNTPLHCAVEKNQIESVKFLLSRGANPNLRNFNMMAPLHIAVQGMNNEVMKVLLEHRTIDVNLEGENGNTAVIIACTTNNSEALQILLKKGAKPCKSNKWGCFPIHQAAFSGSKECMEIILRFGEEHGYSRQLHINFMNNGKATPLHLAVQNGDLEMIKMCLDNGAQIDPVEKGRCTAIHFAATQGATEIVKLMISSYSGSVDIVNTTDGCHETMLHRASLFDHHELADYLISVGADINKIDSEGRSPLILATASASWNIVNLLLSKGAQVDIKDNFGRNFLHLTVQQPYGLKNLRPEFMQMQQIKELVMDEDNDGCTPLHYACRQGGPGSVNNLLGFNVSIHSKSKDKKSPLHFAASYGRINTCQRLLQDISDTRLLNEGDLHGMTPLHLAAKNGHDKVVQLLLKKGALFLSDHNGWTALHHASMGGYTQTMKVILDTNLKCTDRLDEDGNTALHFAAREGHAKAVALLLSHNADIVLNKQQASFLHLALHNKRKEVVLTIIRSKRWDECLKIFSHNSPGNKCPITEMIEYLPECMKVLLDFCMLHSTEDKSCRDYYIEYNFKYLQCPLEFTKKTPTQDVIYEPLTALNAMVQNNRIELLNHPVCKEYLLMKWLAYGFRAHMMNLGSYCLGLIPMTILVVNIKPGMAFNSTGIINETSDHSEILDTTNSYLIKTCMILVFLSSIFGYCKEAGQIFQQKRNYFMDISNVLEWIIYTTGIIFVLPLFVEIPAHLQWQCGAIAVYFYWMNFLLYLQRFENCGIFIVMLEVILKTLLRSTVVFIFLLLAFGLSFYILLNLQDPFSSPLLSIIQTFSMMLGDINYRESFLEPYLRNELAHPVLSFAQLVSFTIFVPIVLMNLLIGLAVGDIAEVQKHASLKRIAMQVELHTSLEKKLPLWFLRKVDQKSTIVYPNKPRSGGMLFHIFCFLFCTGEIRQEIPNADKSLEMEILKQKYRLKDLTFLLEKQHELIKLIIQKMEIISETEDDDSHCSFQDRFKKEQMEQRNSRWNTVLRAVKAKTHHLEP

Ruthenium red [RR]
IC50: ~1800 nM
